Laboratory results reported in ChEMBL document CHEMBL1121442, “Synthesis and antitrypanosomal activity of some bis(4-guanylphenyl) five- and six-membered ring heterocycles” (1980).

What was measured:
[1] = tested on: Mus musculus; test: Tested for antiTrypanosomal activity against Trypanosoma rhodesiense in mice at dose of 5 mg/kg expressed as mean survival time (MST) or cures; type: functional
[2] = tested on: Mus musculus; test: Tested for antiTrypanosomal activity against Trypanosoma rhodesiense in mice at dose of 80 mg/kg expressed as mean survival time (MST) or cures; type: functional
[3] = tested on: Mus musculus; test: Tested for antiTrypanosomal activity against Trypanosoma rhodesiense in mice at dose of 1.25 mg/kg expressed as mean survival time (MST) or cures; type: functional
[4] = tested on: Mus musculus; test: Tested for antiTrypanosomal activity against Trypanosoma rhodesiense in mice at dose of 2.5 mg/kg expressed as mean survival time (MST) or cures; type: functional
[5] = tested on: Mus musculus; test: Tested for antiTrypanosomal activity against Trypanosoma rhodesiense in mice at dose of 10 mg/kg expressed as mean survival time (MST) or cures; type: functional
[6] = tested on: Mus musculus; test: Tested for antiTrypanosomal activity against Trypanosoma rhodesiense in mice at dose of 160 mg/kg expressed as mean survival time (MST) or cures T - toxic death; type: functional, organism-based; set-up: dose 160 mg/kg
[7] = tested on: Mus musculus; test: Tested for antiTrypanosomal activity against Trypanosoma rhodesiense in mice at dose of 20 mg/kg expressed as mean survival time (MST) or cures; type: functional
[8] = tested on: Mus musculus; test: Tested for antiTrypanosomal activity against Trypanosoma rhodesiense in mice at dose of 320 mg/kg expressed as mean survival time (MST) or cures T - toxic death; type: functional, organism-based; set-up: dose 320 mg/kg
[9] = tested on: Mus musculus; test: Tested for antiTrypanosomal activity against Trypanosoma rhodesiense in mice at dose of 40 mg/kg expressed as mean survival time (MST) or cures; type: functional
[10] = tested on: Mus musculus; test: Tested for antiTrypanosomal activity against Trypanosoma rhodesiense in mice at dose of 640 mg/kg expressed as mean survival time (MST) or cures, T - toxic death; type: functional, organism-based; set-up: dose 640 mg/kg
[11] = tested on: Mus musculus; test: Tested for antiTrypanosomal activity against Trypanosoma rhodesiense in mice at dose of 320 mg/kg expressed as mean survival time (MST) or cures; type: functional
[12] = tested on: Mus musculus; test: Tested for antiTrypanosomal activity against Trypanosoma rhodesiense in mice at dose of 160 mg/kg expressed as mean survival time (MST) or cures; type: functional
[13] = tested on: Mus musculus; test: Tested for antiTrypanosomal activity against Trypanosoma rhodesiense in mice at dose of 640 mg/kg expressed as mean survival time (MST) or cures; type: functional
[14] = tested on: Mus musculus; test: Tested for antiTrypanosomal activity against Trypanosoma rhodesiense in mice at dose of 106 mg/kg expressed as mean survival time (MST) or cures T - toxic death; type: functional, organism-based; set-up: dose 106 mg/kg
[15] = tested on: Mus musculus; test: Tested for antiTrypanosomal activity against Trypanosoma rhodesiense in mice at dose of 26.5 mg/kg expressed as mean survival time (MST) or cures T - toxic death; type: functional, organism-based; set-up: dose 26.5 mg/kg
[16] = tested on: Mus musculus; test: Tested for antiTrypanosomal activity against Trypanosoma rhodesiense in mice at dose of 424 mg/kg expressed as mean survival time (MST) or cures T - toxic death; type: functional, organism-based; set-up: dose 424 mg/kg
[17] = tested on: Mus musculus; test: Tested for antiTrypanosomal activity against Trypanosoma rhodesiense in mice at dose of 6.6 mg/kg expressed as mean survival time (MST) or cures; type: functional
[18] = tested on: Mus musculus; test: Tested for antiTrypanosomal activity against Trypanosoma rhodesiense in mice at dose of 13.3 mg/kg expressed as mean survival time (MST) or cures; type: functional
[19] = tested on: Mus musculus; test: Tested for antiTrypanosomal activity against Trypanosoma rhodesiense in mice at dose of 26.5 mg/kg expressed as mean survival time (MST) or cures; type: functional
[20] = tested on: Mus musculus; test: Tested for antiTrypanosomal activity against Trypanosoma rhodesiense in mice at dose of 3.3 mg/kg expressed as mean survival time (MST) or cures; type: functional
[21] = tested on: Mus musculus; test: Tested for antitrypanosomal activity against trypanosoma rhodesiense in mice at dose of 53 mg/kg expressed as mean survival time (MST) or cures; type: functional
[22] = tested on: Mus musculus; test: Tested for antiTrypanosomal activity against Trypanosoma rhodesiense in mice at dose of 106 mg/kg expressed as mean survival time (MST) or cures; type: functional
[23] = tested on: Mus musculus; test: Tested for antiTrypanosomal activity against Trypanosoma rhodesiense in mice at dose of 212 mg/kg expressed as mean survival time (MST) or cures; type: functional
[24] = tested on: Mus musculus; test: Tested for antitrypanosomal activity against trypanosoma rhodesiense in mice at dose of 424 mg/kg expressed as mean survival time (MST) or cures; type: functional

Compound | Cures [1] | Cures [2] | Cures [4] | Cures [5] | Cures [7] | Cures [9] | Cures [11] | Cures [12] | Delta MST [14] | Delta MST [16] | also measured
Cl.Cl.c1cc(-c2cnc(-c3ccc(C4=NCCCN4)cc3)o2)ccc1C1=NCCCN1 | 3 | 2 | 3 | 5 | 5 | 5 | – | – | – | – | Delta MST [3]: 2.7 days; Delta MST [6]: Toxic death; Delta MST [8]: Toxic death; Delta MST [10]: Toxic death
Cl.Cl.c1cc(-c2ccc(-c3ccc(C4=NCCN4)cc3)nn2)ccc1C1=NCCN1 | – | 1 | – | – | – | – | 5 | 3 | – | – | Delta MST [5]: 0.3 days; Delta MST [7]: 1.1 days; Delta MST [9]: 1.1 days
N=C(Nc1ccc(NC(=N)c2ccccc2)o1)c1ccccc1 | 5 | 5 | 4 | 5 | 5 | 5 | 5 | 5 | – | – | Cures [13]: 5; Cures [3]: 4
N=C(N)c1ccc(OCCCCCOc2ccc(C(=N)N)cc2)cc1 [PENTAMIDINE] | 5 | 5 | 4 | 5 | 5 | 5 | 5 | 5 | – | – | Cures [13]: 5; Cures [3]: 1
CC1CNC(c2ccc(-c3nnc(-c4ccc(C5=NC(C)CN5)cc4)o3)cc2)=N1 (configuration not stated) | – | – | – | – | – | – | – | – | Toxic death | Toxic death | Delta MST [15]: Toxic death
Cl.Cl.c1cc(-c2nnc(-c3ccc(C4=NCCCN4)cc3)s2)ccc1C1=NCCCN1 | – | – | – | – | – | – | – | – | Toxic death | Toxic death | Delta MST [15]: Toxic death; Delta MST [9]: 1.1 days
Cl.Cl.c1cc(-c2nnc(-c3ccc(C4=NCCCN4)cc3)o2)ccc1C1=NCCCN1 | – | – | – | – | – | – | – | – | Toxic death | Toxic death | Delta MST [17]: 1.3 days; Cures [18]: 1; Cures [19]: 5
Cl.Cl.N=C(N)c1ccc(-c2nnc(-c3ccc(C(=N)N)cc3)s2)cc1 | – | – | – | – | – | – | – | – | – | – | Cures [20]: 3; Cures [21]: 5; Cures [17]: 4; Delta MST [3]: 2 days; Cures [22]: 5; Cures [18]: 5; Cures [23]: 5; Cures [19]: 5; Cures [24]: 2
